In US11932599B2, “Ferroptosis inducing compound, compositions comprising the same, and methods of inducing ferroptosis” (UNIVERSITY OF MASSACHUSETTS, priority 2021, dated 2024):
pEC50: −log10 of the molar value.

Legend:
HT-1080 cells [1] = assay: Cell viability assay (Alamar Blue), cytotoxicity in HT-1080 cells; format: cell-based, human; details: for pEC50: compound alone, read-out: EC 50
Protocol: (§1) Cell lines and media. In the following example, HT-1080 (Human fibrosarcoma harboring NrasQ61K) cells (obtained from ATCC) were grown in DMEM high-glucose media with 1% non-essential amino acids (Life Technologies) and 10% FBS. 143B cells were grown in DMEM high-glucose media with 1% glutamine and 10% FBS. Calu-1 cells were grown in McCoy's 5A media (Life Technologies) supplemented with 10% FBS. All the cell lines were grown at 37° C. under 5% CO2. Cell lines were not tested for mycoplasma. In addition, the panel of four lung cancer (NCI-H23; SK-Mes-1; Calu6 and A549) were purchased from ATCC. They were cultured according to the ATCC protocol of each cell line. The non-malignant breast epithelial cells (MCF10A) were maintained in DMEM/F12 medium supplemented with 5% horse serum, epidermal growth factor (20 ng/ml), insulin (10 μg/ml), hydrocortisone (0.5 mg/ml), cholera toxin (100 ng/ml), and penicillin/streptomycin.
(§2) Cell viability assay. 9,000 cells per 100 μl were seeded in each well in 96-well plates. Lethal compounds were dissolved in DMSO. In the mother plates, DMSO stock of each compound was further diluted with media to create 20 μM or 10 μm as highest concentrations, respectively and a twofold, 9-point dilution series was prepared. Cells were seeded for 24 h and media were replaced by the mother plate drug-dilution media. When ferroptosis inhibitors (for example, 500 nM Ferrostatin-1, 100 μM α-tocopherol, 152 μM deferoxamine) were used in cotreatments with lethal inducers, they were supplemented to cell culture when the lethal compounds were added, and the cells were then incubated for 48 h. When other cell-death-modulating compounds (100 nM sodium selenite) were used in cotreatments, they were supplemented to cell culture for 24 h before lethal compounds were added to cell culture, after which cells were further incubated for 48 h at 37° C. under 5% CO2. On the day of the viability measurement, we added 25 μl per well of 50% Alamar Blue diluted in media (Life Technologies) and further incubated the cells at 37° C. for 6 h. Fluorescence intensity (excitation/emission: 540/590) was measured with a Victor 3 plate reader (PerkinElmer), and the normalized viability was calculated as VL=(IL−I0)/(IV−I0), where VL is the normalized viability, I0 is the raw fluorescence intensities from the wells containing media, IV is the cells treated with a vehicle (negative control), and IL is the cells with the lethal compound (L), respectively. The viability was typically measured in at least biological duplicate. A representative dose-response curve, the mean and standard error of normalized viability from one replicate were plotted.
Statistical analysis and data visualization. Dose-response curve plotting and EC50 computation were performed with Prism 6.0c (GraphPad Software).
Various compounds were selected for analysis of their cytotoxicity in HT-1080 cells according to the procedure described above.

HT-1080 cells [2] = assay: Cell viability assay in HT-1080 cells, cotreatment with cell-death inhibitors; format: cell-based, human; details: HT-1080, 48 h; for EC50: Homo sapiens, read-out: EC50 (μM) of TKD1079 + inhbitor
HT-1080 cells [3] = assay: Analysis of ROS generation: lipid ROS by C11-BODIPY flow cytometry; format: cell-based, human; details: C11-BODIPY (2 μM), 4 hours
Protocol: Analysis of ROS Generation. 200,000 HT-1080 cells were seeded in six-well plates at 37° C. for 17 h. Cells were treated with TKD1079 compound, trypsinized, pelleted, and washed once with PBS. For lipophilic or aqueous ROS detection, cells were re-suspended in Hanks' Balanced Salt Solution (HBSS; Life Technologies) containing test compounds as well as C11-BODIPY(581/591) (2 μM) (Life Technologies), and incubated for 10 min at 37° C. Cells were then pelleted, re-suspended in 250 μL HBSS in a BD Falcon tube, and analyzed using a BD Accuri C6 flow cytometer (BD Biosciences). Both dyes were measured in the FL1 channel.

NCI-H23 cells = assay: Cell viability assay, cytotoxicity in NCI-H23 cells; format: cell-based; details: 48 hours
Protocol: as §1
Cell viability assay. 9,000 cells per 100 μl were seeded in each well in 96-well plates. Lethal compounds were dissolved in DMSO. In the mother plates, DMSO stock of each compound was further diluted with media to create 20 μM or 10 μm as highest concentrations, respectively and a twofold, 9-point dilution series was prepared. […] Fluorescence intensity (excitation/emission: 540/590) was measured with a Victor 3 plate reader (PerkinElmer), and the normalized viability was calculated as VL=(IL−I0)/(IV−I0), where VL is the normalized viability, I0 is the raw fluorescence intensities from the wells containing media, IV is the cells treated with a vehicle (negative control), and IL is the cells with the lethal compound (L), respectively. The viability was typically measured in at least biological duplicate. […]
In addition, the compound TKD1079 was also analyzed for cytotoxicity in four different lung cancer cell lines according to the procedure described above. […] Cytotoxicity was also determined against MCF10A non-malignant breast epithelial cell, NCI-H1299 human non-small cell lung carcinoma cell line, and Beas-2B epithelial cells isolated from normal human bronchial epithelium.

Beas-2B epithelial cells = assay: Cell viability assay, cytotoxicity in Beas-2B cells; format: cell-based; details: 48 hours
Protocol: as §2, with “When other cell-death-modulating compounds (100 nM sodium selenite) were used in cotreatments, they were supplemented to cell culture for 24 h before lethal compounds were added to cell culture, after which cells were further incubated for 48 h at 37° C. under 5% CO2. On the day of the viability measurement, we added 25 μl per well of 50% Alamar Blue diluted in media (Life Technologies) and further incubated the cells at 37° C. for 6 h.” left out, “A representative dose-response curve, the mean and standard error of normalized viability from one replicate were plotted.” left out
(§3) In addition, the compound TKD1079 was also analyzed for cytotoxicity in four different lung cancer cell lines according to the procedure described above. […]

[4] = system: MCF10A non-malignant breast epithelial cell; assay: Cell viability assay, cytotoxicity in MCF10A cells; format: cell-based; details: 48 hours
Protocol: as §1, with “The non-malignant breast epithelial cells (MCF10A) were maintained in DMEM/F12 medium supplemented with 5% horse serum, epidermal growth factor (20 ng/ml), insulin (10 μg/ml), hydrocortisone (0.5 mg/ml), cholera toxin (100 ng/ml), and penicillin/streptomycin.” left out
(§4) Cell viability assay. […] Fluorescence intensity (excitation/emission: 540/590) was measured with a Victor 3 plate reader (PerkinElmer), and the normalized viability was calculated as VL=(IL−I0)/(IV−I0), where VL is the normalized viability, I0 is the raw fluorescence intensities from the wells containing media, IV is the cells treated with a vehicle (negative control), and IL is the cells with the lethal compound (L), respectively. The viability was typically measured in at least biological duplicate. […]
as §3

[5] = system: four lung cancer cell lines (NCI-H23, Calu6, A549, SK-Mes-1); assay: Cell viability of four lung cancer cell lines cotreated with ferrostatin-1; format: cell-based; details: ferrostatin-1 500 nM, 48 h
Protocol: as §1, with “The non-malignant breast epithelial cells (MCF10A) were maintained in DMEM/F12 medium supplemented with 5% horse serum, epidermal growth factor (20 ng/ml), insulin (10 μg/ml), hydrocortisone (0.5 mg/ml), cholera toxin (100 ng/ml), and penicillin/streptomycin.” left out
as §4

[6] = Homo sapiens, HT-1080, HT-1080 cells

O=S(=O)(NC1CCCCC1)c1ccc2c(c1)C(Br)c1cc(S(=O)(=O)NC3CCCCC3)ccc1-2 [TKD1100, 9-bromo-N2,N^7-dicyclohexyl-9H-fluorene-2,7-disulfonamide]
pEC50 (HT-1080 cells [1]; [6]): 5.45

CC(C)CNS(=O)(=O)c1ccc2c(c1)C(=NO)c1cc(S(=O)(=O)NCC(C)C)ccc1-2 [TKD10416, 9-(hydroxyimino)-N^2,N^7-diisobutyl-9H-fluorene-2,7-disulfonamide]
pEC50 (HT-1080 cells [1]; [6]): 5.36

CCC(CC)NS(=O)(=O)c1ccc2c(c1)C(=NO)c1cc(S(=O)(=O)NC(CC)CC)ccc1-2 [TKD1034D, 9-(hydroxyimino)-N^2,N^7-di(pentan-3-yl)-9H-fluorene-2,7-disulfonamide]
pEC50 (HT-1080 cells [1]; [6]): 6.29

O=S(=O)(NC12CC(C1)C2)c1ccc2c(c1)C(=NO)c1cc(S(=O)(=O)NC34CC(C3)C4)ccc1-2 [TKD1026, N^2,N^7-di(bicyclo[1.1.1]pentan-1-yl)-9-(hydroxyimino)-9H-fluorene-2,7-disulfonamide]
pEC50 (HT-1080 cells [1]; HT-1080 cells): 5.77
pEC50 (HT-1080 cells [1]; [6]): > 5.70

CNS(=O)(=O)c1ccc2c(c1)C(=NO)c1cc(S(=O)(=O)NC)ccc1-2 [TKD1034A, 9-(hydroxyimino)-N^2,N^7-dimethyl-9H-fluorene-2,7-disulfonamide]
pEC50 (HT-1080 cells [1]; [6]): 4.92

O=S(=O)(NC1CC2CCC1C2)c1ccc2c(c1)C(=NO)c1cc(S(=O)(=O)NC3CC4CCC3C4)ccc1-2 (stereo not shown) [TKD1079, N^2,N^7-di(bicyclo[2.2.1]heptan-2-yl)-9-(hydroxyimino)-9H-fluorene-2,7-disulfonamide]
EC50 (HT-1080 cells [1]; Homo sapiens, HT-1080, 48 h, HT-1080 cells, 48 hours, no inhibitor, read-out: EC50 (μM) of TKD1079): 0.0797 µM
pEC50 (HT-1080 cells [1]; [6]): 7.10
Slectivity in fold [EC50 (TKD1079 + inhibitor)/ EC50 inhbitor] (HT-1080 cells [2]; DFOM (152 μM)): 34.2 fold
Slectivity in fold [EC50 (TDK1079 + inhibitor)/ EC50 inhbitor] (HT-1080 cells [2]; Ebselen (5 μM)): 5.8 fold
Slectivity in fold [EC50 (TKD1079 + inhibitor)/ EC50 inhbitor] (HT-1080 cells [2]; Fer 1 (500 nM)): 68.8 fold
Slectivity in fold [EC50 (TDK1079 + inhibitor)/ EC50 inhbitor] (HT-1080 cells [2]; Selenite (100 nM)): 9.5 fold
Slectivity in fold [EC50 (TDK1079 + inhibitor)/ EC50 inhbitor] (HT-1080 cells [2]; TOFA (10 μM)): 148.7 fold
Slectivity in fold [EC50 (TDK1079 + inhibitor)/ EC50 inhbitor] (HT-1080 cells [2]; Trolox (100 μM)): 11.6 fold
Slectivity in fold [EC50 (TKD1079 + inhibitor)/ EC50 inhbitor] (HT-1080 cells [2]; ZVAD 45 μM): 0.6 fold
blocking of the compound's lethality by the apoptosis inhibitor pathway (ZVAD) (HT-1080 cells [2]; ZVAD 45 μM): did not block
Slectivity in fold [EC50 (TKD1079 + inhibitor)/ EC50 inhbitor] (HT-1080 cells [2]; aToc (100 μM)): 13.5 fold
EC50 (HT-1080 cells [2]; cotreated with DFOM (152 μM)): 2.73 µM
EC50 (HT-1080 cells [2]; cotreated with Ebselen (5 μM)): 0.459 µM
EC50 (HT-1080 cells [2]; cotreated with Fer 1 (500 nM)): 5.48 µM
EC50 (HT-1080 cells [2]; cotreated with Selenite (100 nM)): 0.758 µM
EC50 (HT-1080 cells [2]; cotreated with TOFA (10 μM)): 11.8 µM
EC50 (HT-1080 cells [2]; cotreated with Trolox (100 μM)): 0.924 µM
EC50 (HT-1080 cells [2]; cotreated with ZVAD (45 μM)): 0.051 µM
EC50 (HT-1080 cells [2]; cotreated with aToc (100 μM)): 1.08 µM
lipid ROS generation during cell death (HT-1080 cells [3]): increased
ferroptosis induction in NCI-H23 using ferroptosis inhibitors (NCI-H23 cells; NCI-H23, DFOM (152 μM) and Fer-1 (0.5 μM)): induces ferroptosis
cytotoxicity (cell viability) in NCI-H23 cells (NCI-H23 cells; NCI-H23 cells): highly potent
cytotoxicity in normal human lung Beas-2B cells (Beas-2B epithelial cells): without harming
cytotoxicity in breast MCF10A cells [4]: without harming
cytotoxicity in the presence of Fer-1 [5]: blocked
